Consider four compounds from PMC12823633 (Cancer Chemotherapy and Pharmacology, 2026).

Data set [1] can be described thus: Adverse events, DDI evaluation period. It is filed as in vivo, human (patients with solid tumors).
The test system of another data set is CYP3A4. The conditions noted are these: for AUCinf, Geometric LSM / AUClast, Geometric LSM / Cmax, Geometric LSM: 1’-hydroxymidazolam.
The target in the next data set is T1, CYP2C8 (Homo sapiens, UniProt P10632).
T1 sequence (P10632 1-490): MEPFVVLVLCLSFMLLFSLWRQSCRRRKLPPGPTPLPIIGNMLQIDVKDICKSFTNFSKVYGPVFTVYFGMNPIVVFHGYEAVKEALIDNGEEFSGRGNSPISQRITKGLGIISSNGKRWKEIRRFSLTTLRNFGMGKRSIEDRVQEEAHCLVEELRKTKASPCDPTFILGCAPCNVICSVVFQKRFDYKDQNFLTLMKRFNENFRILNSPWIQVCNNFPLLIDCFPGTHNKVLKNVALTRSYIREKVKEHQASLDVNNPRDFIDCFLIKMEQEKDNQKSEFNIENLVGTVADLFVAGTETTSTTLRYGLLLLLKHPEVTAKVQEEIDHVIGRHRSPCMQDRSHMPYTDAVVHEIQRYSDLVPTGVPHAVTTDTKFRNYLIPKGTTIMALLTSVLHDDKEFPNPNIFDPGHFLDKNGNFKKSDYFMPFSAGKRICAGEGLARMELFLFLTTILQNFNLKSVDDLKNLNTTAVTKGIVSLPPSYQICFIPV
Description: Clinical DDI: pioglitazone plasma PK with and without TAS-115. The note with it: oral, 15 mg.

Another data set addresses CYP2C9 (Homo sapiens, UniProt P11712). Description: clinical. The note with it: plasma, oral, 25 mg.
The mark [2] stands for this setting: After Administration of TAS-115, DDI period (N=18).
Setting [3] is: Before Administration of TAS-115 (N=18).
[4] abbreviates: Entire DDI Evaluation Period (N=18).
The mark [5] stands for this setting: midazolam 2.5 mg alone (Day −2).
Where [6] appears, read: midazolam 2.5 mg with TAS-115 250 mg once daily (Day 5).

Read-outs that look alike come from different tables or passages of the source.

Chain of CYP2C9 (P11712 whole entry): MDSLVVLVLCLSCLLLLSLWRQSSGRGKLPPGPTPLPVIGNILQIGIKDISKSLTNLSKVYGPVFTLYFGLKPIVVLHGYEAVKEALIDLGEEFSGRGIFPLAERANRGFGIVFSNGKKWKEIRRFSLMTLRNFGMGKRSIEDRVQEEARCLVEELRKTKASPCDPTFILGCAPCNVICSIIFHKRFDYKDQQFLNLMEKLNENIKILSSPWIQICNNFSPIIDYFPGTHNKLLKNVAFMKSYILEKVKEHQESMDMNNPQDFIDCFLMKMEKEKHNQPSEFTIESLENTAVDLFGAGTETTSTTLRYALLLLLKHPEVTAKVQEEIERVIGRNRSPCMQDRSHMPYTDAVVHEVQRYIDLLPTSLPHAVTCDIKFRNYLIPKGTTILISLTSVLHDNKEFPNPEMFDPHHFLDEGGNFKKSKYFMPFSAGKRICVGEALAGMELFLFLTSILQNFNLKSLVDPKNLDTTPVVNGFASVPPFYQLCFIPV

For orientation: AUC(0-inf) means total exposure, with the tail of the curve extrapolated. A high value points to more exposure. A word on the AUC(0-t): it is the area under the concentration-time curve up to a stated or last time point. Read a high AUC(0-t) as high exposure. The Cmax is the maximum level reached in the sampled fluid or tissue. On to `Cc1ncc2n1-c1ccc(Cl)cc1C(c1ccccc1F)=NC2` [Midazolam, midazolam, reference compound], for which, in data set [1] (setting [2]), the “Any >=Grade 3 TRAEs Related to Midazolam” value was 0 (0.0) N (%) and the “Any TRAEs Related to Midazolam” value is given as 0 (0.0) N (%). In data set [1] (setting [3]), the “Any >=Grade 3 TRAEs Related to Midazolam” value is 0 (0.0) N (%) and the “Any TRAEs Related to Midazolam” value is on record as 0 (0.0) N (%). Further, in data set [1] (setting [4]), the “Any >=Grade 3 TRAEs Related to Midazolam” value was 0 (0.0) N (%) and the “Any TRAEs Related to Midazolam” value was 0 (0.0) N (%). In addition, in the data set on CYP3A4 (human, plasma, oral, 2.5 mg), the AUC(0-inf) amounted to 56.8 ng·h/mL, the AUC(0-t) was found to be 55.5 ng·h/mL and the Cmax came out at 21.9 ng/mL.

In the case of `CCc1ccc(CCOc2ccc(CC3SC(=O)NC3=O)cc2)nc1` (centres unmarked) [Pioglitazone, pioglitazone, reference compound], in data set [1] (setting [2]), the “Any >=Grade 3 TRAEs Related to Pioglitazone” value was 0 (0.0) N (%) and the “Any TRAEs Related to Pioglitazone” value is 0 (0.0) N (%). Besides, in data set [1] (setting [3]), the “Any >=Grade 3 TRAEs Related to Pioglitazone” value was 0 (0.0) N (%) and the “Any TRAEs Related to Pioglitazone” value is given as 1 (5.6) N (%). Further, the “TRAE (Grade 1 diarrhoea) related to pioglitazone” value in data set [1] (DDI evaluation period, pioglitazone administered before TAS-115) is reported as “one patient”. In data set [1] (setting [4]), the “Any >=Grade 3 TRAEs Related to Pioglitazone” value is given as 0 (0.0) N (%) and the “Any TRAEs Related to Pioglitazone” value is on record as 1 (5.6) N (%). For the same compound, at CYP2C8, the AUC(0-inf) is 7710 ng·h/mL, the AUC(0-t) came to 6340 ng·h/mL and the peak level (Cmax) was 635 ng/mL.

Take `OCc1ncc2n1-c1ccc(Cl)cc1C(c1ccccc1F)=NC2` [1’-Hydroxymidazolam, 1’-hydroxymidazolam]: in the data set with CYP3A4 (setting [5]), the “AUCinf, Geometric LSM” value stood at 19.92 ng·h/mL; the “AUClast, Geometric LSM” value was 19.33 ng·h/mL; the “Cmax, Geometric LSM” value stood at 8.195 ng/mL. Besides, in the data set on CYP3A4 (setting [6]), the “AUCinf, Geometric LSM” value is 20.86 ng·h/mL; the “AUClast, Geometric LSM” value turned out to be 20.13 ng·h/mL; the “Cmax, Geometric LSM” value is 8.391 ng/mL.

As for `CCCCc1nc(Cl)c(CO)n1Cc1ccc(-c2ccccc2-c2nn[nH]n2)cc1` [Losartan, losartan, reference compound], in data set [1] (setting [2]), the “Any >=Grade 3 TRAEs Related to Losartan” value was 0 (0.0) N (%) and the “Any TRAEs Related to Losartan” value is recorded as 1 (5.6) N (%). Moreover, in data set [1] (setting [3]), the “Any >=Grade 3 TRAEs Related to Losartan” value is listed as 0 (0.0) N (%) and the “Any TRAEs Related to Losartan” value was 0 (0.0) N (%). In data set [1] (DDI evaluation period, losartan administered after TAS-115), the “TRAE (Grade 1 hypotension) related to losartan” value is “one patient”. Moreover, in data set [1] (setting [4]), the “Any >=Grade 3 TRAEs Related to Losartan” value is on record as 0 (0.0) N (%) and the “Any TRAEs Related to Losartan” value is 1 (5.6) N (%). In addition, at CYP2C9, the AUC(0-inf) is 388 ng·h/mL, the AUC(0-t) was 364 ng·h/mL and the Cmax is 158 ng/mL.
